Test [1] has as its target human GLP-1 receptor (GLP-1R) (Homo sapiens, UniProt P43220). The test can be described thus: cAMP pharmacological functional assay in presence of casein, hGLP-1R. It is filed as cell-based. To be noted: HEK293 cells expressing hGLP-1R, 0.1% Casein, geometric mean; read-out: hGLP1R cAMP Rel EC50 nM (SEM, n).
Test [2] deals with T1, gastric inhibitory peptide receptor (GIPR) (Homo sapiens, UniProt P48546).
T1 sequence (P48546 22-466): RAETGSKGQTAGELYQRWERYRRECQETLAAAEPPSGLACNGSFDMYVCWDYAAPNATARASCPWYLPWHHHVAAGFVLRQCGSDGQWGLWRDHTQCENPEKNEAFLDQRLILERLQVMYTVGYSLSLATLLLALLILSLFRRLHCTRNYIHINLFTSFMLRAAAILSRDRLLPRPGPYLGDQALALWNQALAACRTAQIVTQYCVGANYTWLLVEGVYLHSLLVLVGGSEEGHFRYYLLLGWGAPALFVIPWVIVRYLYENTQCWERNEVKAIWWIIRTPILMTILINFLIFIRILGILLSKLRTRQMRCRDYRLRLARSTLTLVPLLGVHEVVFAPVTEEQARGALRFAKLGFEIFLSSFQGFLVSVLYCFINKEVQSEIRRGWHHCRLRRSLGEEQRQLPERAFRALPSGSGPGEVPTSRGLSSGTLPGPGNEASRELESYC
The test can be described thus: cAMP pharmacological functional assay in presence of casein, hGIPR. The format is cell-based. The following applies: HEK293 cells expressing hGIPR, 0.1% Casein, geometric mean; read-out: hGIPR cAMP Rel EC50 nM (SEM, n).

Test [3] addresses T2, human Gcg receptor (Homo sapiens, UniProt P47871).
T2 construct: expressed in transfected cells; crude membranes
The test can be described thus: [125I]-Glucagon binding (SPA), human Gcg receptor. To be noted: read-out: hGLcgR Ki, nM (SEM, n). In a few lines:
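Crude membranes from cells expressing the receptor, prepared by hypotonic lysis in 50 mM Tris HCl pH 7.5 with protease inhibitors, homogenization and differential centrifugation, were used in a WGA-bead SPA. Binding buffer: 25 mM HEPES pH 7.4, 2.5 mM CaCl2, 1 mM MgCl2, bacitracin, Tween-20.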

Test [4] addresses T3, human GIP receptor (Homo sapiens, UniProt P48546).
T3 construct: expressed in transfected cells; crude membranes
T3 sequence (P48546 22-466): T1 sequence (P48546 22-466)
The test can be described thus: [125I]-GIP binding (SPA), human GIP receptor. To be noted: read-out: hGIPR Ki, nM (SEM, n).

For test [5], the target named is T4, human GLP-1R (Homo sapiens, UniProt P43220). The test can be described thus: [125I]-GLP-1 binding (SPA), human GLP-1 receptor. Set-up: expressed in transfected cells; crude membranes. To be noted: read-out: hGLP1R Ki, (nM) (SEM, n). An outline of the steps:
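Membranes: hypotonic lysis (50 mM Tris HCl, pH 7.5, protease inhibitors), Potter-Elvehjem homogenization, high-speed pellet (35000×g 1 h or 25000×g 30 min, 4° C.). Buffer: 25 mM HEPES pH 7.4, 2.5 mM CaCl2, 1 mM MgCl2. Four-parameter IC50 fit; Ki as geometric mean ± SEM.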

For test [6], the target named is T4, human GLP-1R. The test can be described thus: GLP-1R HEK293 cell membrane [35S]GTPγS binding assay. The following applies: HEK293 cell membranes expressing human GLP-1R, [35S]GTPγS binding; read-out: hGLP1R GTPgS Rel EC50 nM (SEM, n). Set-up: expressed in transfected cells; host or cells: HEK293 cells expressing human GLP-1R; membranes. The format is biochemical. An outline of the steps: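 Membranes from HEK293 cells expressing the receptor incubated with peptide and […] [35S]GTPγS in HEPES pH 7.4 buffer with NaCl, MgCl2, saponin and BSA, 30 min at room temperature. Gαs-bound label captured by anti-Gαs antibody/SPA beads and counted; EC50 from four-parameter logistic fit.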
(GTPγS resists hydrolysis and so accumulates on activated G proteins.)

The target of test [7] is T4, human GLP-1R. The test can be described thus: GLP-1R CHO cell β-arrestin recruitment assay. It is filed as cell-based. On the set-up: host or cells: CHO-K1 PathHunter cells, assay-ready frozen. To be noted: for EC50: CHO-K1 cells; for hGLP1R B-Arrestin2 % Top: normalized to GLP-1 maximum control. In a few lines:
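PathHunter CHO-K1 cells with ProLink-tagged human GLP-1R and enzyme-acceptor-tagged β-arrestin-2 treated with serially diluted peptides in assay buffer containing 0.1% hydrolyzed casein, 90 min at 37 °C.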
On the technique in general: Recruitment of arrestin is a read-out of receptor activation apart from second messengers.

[8] abbreviates: PathHunter β-arrestin-2 recruitment, 0.1% casein, read-out: hGLP1R B-Arrestin2 Rel EC50 uM (SEM, n).

Numbered stars: 1 amine (or outer) side, 2 acyl side, 3 side chain; on linkers, the order of the positions; unused ones are H or OH. Square brackets hold non-standard residues; d marks the D form. Side chains are listed from the residue outwards. Peptide text beside a SMILES is read from it. * marks the point of attachment. C20 diacid = O=C(O)CCCCCCCCCCCCCCCCCCC(=O)*; C18 diacid = O=C(O)CCCCCCCCCCCCCCCCC(=O)*; γGlu = O=C(O)[C@H](CCC(=O)[*:2])N[*:1]; αMeL = CC(C)C[C@](C)(N)C(=O)O; AEEA = NCCOCCOCC(=O)O; Aib = CC(C)(N)C(=O)O

The EC50 is the concentration that produces a half-maximal response. The term Ki denotes a measure of affinity in units of concentration, obtained from inhibition or displacement.

T2 sequence (P47871 26-477): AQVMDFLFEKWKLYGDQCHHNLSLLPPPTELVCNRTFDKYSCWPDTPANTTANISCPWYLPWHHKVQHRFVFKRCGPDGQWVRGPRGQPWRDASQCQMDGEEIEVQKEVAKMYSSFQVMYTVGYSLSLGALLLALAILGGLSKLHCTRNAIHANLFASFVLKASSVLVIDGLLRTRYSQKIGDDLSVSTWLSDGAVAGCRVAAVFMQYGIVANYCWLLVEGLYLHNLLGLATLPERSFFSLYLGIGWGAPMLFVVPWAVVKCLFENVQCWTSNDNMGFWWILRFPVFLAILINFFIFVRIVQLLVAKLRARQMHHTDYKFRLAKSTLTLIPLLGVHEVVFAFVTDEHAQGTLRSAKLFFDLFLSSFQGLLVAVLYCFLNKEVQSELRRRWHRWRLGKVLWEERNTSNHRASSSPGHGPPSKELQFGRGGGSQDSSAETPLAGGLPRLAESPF
T4 sequence (P43220 24-463): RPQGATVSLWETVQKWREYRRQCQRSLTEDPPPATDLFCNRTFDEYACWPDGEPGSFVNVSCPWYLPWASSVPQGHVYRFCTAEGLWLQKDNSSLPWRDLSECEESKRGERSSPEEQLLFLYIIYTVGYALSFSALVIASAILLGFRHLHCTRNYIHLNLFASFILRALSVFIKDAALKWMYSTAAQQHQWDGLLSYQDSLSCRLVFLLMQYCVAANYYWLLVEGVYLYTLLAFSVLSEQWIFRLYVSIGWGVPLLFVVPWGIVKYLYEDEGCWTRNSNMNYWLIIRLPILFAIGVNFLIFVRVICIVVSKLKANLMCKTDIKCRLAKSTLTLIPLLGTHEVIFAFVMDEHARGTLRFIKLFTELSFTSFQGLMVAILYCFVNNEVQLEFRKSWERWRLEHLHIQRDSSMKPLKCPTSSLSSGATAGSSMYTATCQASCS
Sequence of human GLP-1 receptor (GLP-1R) (P43220 24-463): as above

As for `CC[C@H](C)[C@H](NC(=O)[C@H](CC(C)C)NC(=O)[C@H](Cc1ccc(O)cc1)NC(=O)[C@H](CCC(=O)O)NC(=O)[C@@H](NC(=O)[C@H](Cc1ccccc1)NC(=O)[C@H](C)NC(=O)C(C)(C)NC(=O)[C@H](CCC(N)=O)NC(=O)[C@H](C)NC(=O)[C@H](CCCCNC(=O)COCCOCCNC(=O)COCCOCCNC(=O)CC[C@H](NC(=O)CCCCCCCCCCCCCCCCC(=O)O)C(=O)O)NC(=O)[C@H](CCCCN)NC(=O)[C@H](CC(=O)O)NC(=O)[C@H](CC(C)C)NC(=O)[C@H](CC(C)C)NC(=O)[C@@H](NC(=O)[C@H](CO)NC(=O)[C@H](Cc1ccc(O)cc1)NC(=O)[C@H](CC(=O)O)NC(=O)[C@H](CO)NC(=O)[C@@H](NC(=O)[C@H](Cc1ccccc1)NC(=O)[C@@H](NC(=O)CNC(=O)[C@H](CCC(=O)O)NC(=O)C(C)(C)NC(=O)[C@@H](N)Cc1ccc(O)cc1)[C@@H](C)O)[C@@H](C)O)[C@@H](C)CC)[C@@H](C)CC)C(=O)N[C@@H](CCC(=O)O)C(=O)NCC(=O)NCC(=O)N1CCC[C@H]1C(=O)N[C@@H](CO)C(=O)N[C@@H](CO)C(=O)NCC(N)=O` [Example 266] (H-Y[Aib]EGTFTSDYSILLDKK([AEEA-AEEA-γGlu-C18 diacid])AQ[Aib]AFIEYLIEGGPSSG-NH2), the 50% effective concentration (EC50) in test [1] was determined as 0.0883 nM; in test [2] it was 0.0442 nM; in test [6] it was 0.865 nM; in test [7] (setting [8]) it was 0.016 µM. Moreover, the inhibitory constant (Ki) in test [3] was found to be 193 nM; in test [4] it was 0.0666 nM; in test [5] it was 2.01 nM. Besides, the “hGLP1R B-Arrestin2 % Top” value in test [7] came out at 17.1%.
Consider `CC[C@H](C)[C@H](NC(=O)[C@H](CC(C)C)NC(=O)[C@H](Cc1ccc(O)cc1)NC(=O)[C@H](CCC(=O)O)NC(=O)[C@@H](NC(=O)[C@H](Cc1ccccc1)NC(=O)[C@H](C)NC(=O)C(C)(C)NC(=O)[C@H](CCC(N)=O)NC(=O)[C@H](C)NC(=O)[C@H](CCCCNC(=O)COCCOCCNC(=O)COCCOCCNC(=O)CC[C@H](NC(=O)CCCCCCCCCCCCCCCCC(=O)O)C(=O)O)NC(=O)[C@H](CCCCN)NC(=O)[C@H](CC(=O)O)NC(=O)[C@H](CC(C)C)NC(=O)[C@H](CC(C)C)NC(=O)[C@@H](NC(=O)[C@H](CO)NC(=O)[C@H](Cc1ccc(O)cc1)NC(=O)[C@H](CC(=O)O)NC(=O)[C@H](CO)NC(=O)[C@@H](NC(=O)[C@H](Cc1ccccc1)NC(=O)[C@@H](NC(=O)CNC(=O)[C@H](CCC(=O)O)NC(=O)C(C)(C)NC(=O)[C@@H](N)Cc1ccc(O)cc1)[C@@H](C)O)[C@@H](C)O)[C@@H](C)CC)[C@@H](C)CC)C(=O)N[C@@H](CCC(=O)O)C(=O)NCC(=O)NCC(N)=O` [Example 267] (H-Y[Aib]EGTFTSDYSILLDKK([AEEA-AEEA-γGlu-C18 diacid])AQ[Aib]AFIEYLIEGG-NH2), for which the EC50 was found to be 0.054 nM in test [1], 0.108 nM in test [2], 0.867 nM in test [6] and 0.00901 µM in test [7] (setting [8]). For the same compound, the inhibition constant (Ki) in test [3] came out at 349 nM; in test [4] it was 0.0628 nM; in test [5], 1.57 nM. Further, the “hGLP1R B-Arrestin2 % Top” value in test [7] is 16.5%.
In the case of `CC[C@H](C)[C@H](NC(=O)[C@H](CC(C)C)NC(=O)[C@H](Cc1ccc(O)cc1)NC(=O)[C@H](CCC(=O)O)NC(=O)[C@@H](NC(=O)[C@H](Cc1ccccc1)NC(=O)[C@H](C)NC(=O)C(C)(C)NC(=O)[C@H](CCC(N)=O)NC(=O)[C@H](C)NC(=O)[C@H](CCCCNC(=O)COCCOCCNC(=O)COCCOCCNC(=O)CC[C@H](NC(=O)CCCCCCCCCCCCCCCCC(=O)O)C(=O)O)NC(=O)[C@H](CCCCN)NC(=O)[C@H](CC(=O)O)NC(=O)[C@H](CC(C)C)NC(=O)[C@H](CC(C)C)NC(=O)[C@@H](NC(=O)[C@H](CO)NC(=O)[C@H](Cc1ccc(O)cc1)NC(=O)[C@H](CC(=O)O)NC(=O)[C@H](CO)NC(=O)[C@@H](NC(=O)[C@H](Cc1ccccc1)NC(=O)[C@@H](NC(=O)CNC(=O)[C@H](CCC(=O)O)NC(=O)C(C)(C)NC(=O)[C@@H](N)Cc1ccc(O)cc1)[C@@H](C)O)[C@@H](C)O)[C@@H](C)CC)[C@@H](C)CC)C(=O)N[C@@H](C)C(=O)NCC(=O)NCC(=O)N1CCC[C@H]1C(=O)N[C@@H](CO)C(=O)N[C@@H](CO)C(=O)NCC(N)=O` [Example 272] (H-Y[Aib]EGTFTSDYSILLDKK([AEEA-AEEA-γGlu-C18 diacid])AQ[Aib]AFIEYLIAGGPSSG-NH2), the 50% effective concentration (EC50) was 0.0435 nM in test [1]; 0.0464 nM in test [2]; 0.651 nM in test [6]; greater than 12 µM in test [7] (0.1% w/v hydrolyzed Casein, read-out: hGLP1R B-Arrestin2 Rel EC50); greater than 12 µM in test [7] (setting [8]). For the same compound, the values for the inhibition constant (Ki) in test [3], in test [4] and in test [5] were 550 nM, 0.0353 nM and 1.22 nM, respectively.
In the case of `CC[C@H](C)[C@H](NC(=O)[C@H](CC(C)C)NC(=O)[C@H](Cc1ccc(O)cc1)NC(=O)[C@H](CCC(=O)O)NC(=O)[C@@H](NC(=O)[C@H](Cc1ccccc1)NC(=O)[C@H](CCC(=O)O)NC(=O)C(C)(C)NC(=O)[C@H](CCC(N)=O)NC(=O)[C@H](C)NC(=O)[C@H](CCCCNC(=O)COCCOCCNC(=O)COCCOCCNC(=O)CC[C@H](NC(=O)CCCCCCCCCCCCCCCCCCC(=O)O)C(=O)O)NC(=O)[C@H](CCCCN)NC(=O)[C@H](CC(=O)O)NC(=O)[C@H](CC(C)C)NC(=O)[C@](C)(CC(C)C)NC(=O)[C@@H](NC(=O)[C@H](CO)NC(=O)[C@H](Cc1ccc(O)cc1)NC(=O)[C@H](CC(=O)O)NC(=O)[C@H](CO)NC(=O)[C@@H](NC(=O)[C@H](Cc1ccccc1)NC(=O)[C@@H](NC(=O)CNC(=O)[C@H](CCC(=O)O)NC(=O)C(C)(C)NC(=O)[C@H](N)Cc1ccc(O)cc1)[C@@H](C)O)[C@@H](C)O)[C@@H](C)CC)[C@@H](C)CC)C(=O)N[C@@H](C)C(=O)NCC(=O)NCC(=O)N1CCC[C@H]1C(=O)N[C@@H](CO)C(=O)N[C@@H](CO)C(=O)NCC(=O)N[C@@H](C)C(=O)N1CCC[C@H]1C(=O)N1CCC[C@H]1C(=O)N1CCC[C@H]1C(=O)N[C@@H](CO)C(N)=O` [Example 290] (H-[dY][Aib]EGTFTSDYSI[αMeL]LDKK([AEEA-AEEA-γGlu-C20 diacid])AQ[Aib]EFIEYLIAGGPSSGAPPPS-NH2), the EC50 in test [1] amounted to 0.179 nM; in test [2] it was 0.0629 nM; in test [6] it was 0.466 nM; in test [7] (setting [8]), 0.0238 µM. In addition, the Ki in test [3] turned out to be 308 nM; in test [4] it was 0.0617 nM; in test [5], 2.44 nM. Further, in test [7], the “hGLP1R B-Arrestin2 % Top” value was 20.0%.

Values taken from patent publication US12252524B2, “GIP/GLP1 co-agonist compounds” (Eli Lilly and Company, priority 2018, dated 2025).
